{"source": "patent US9145404B2", "about": "“Tetomilast polymorphs” (Otsuka Pharmaceutical Co., Ltd., priority 2006, dated 2015)", "key": {"[1]": {"test": "Transformation of type B crystal to type A crystal while stirred as a suspension in acetone-water, crystal form by powder X-ray diffraction", "format": "physicochemical", "settings": "5 g suspended in 40 ml acetone and 10 ml water", "procedure": "(§1) The powder X-ray diffraction spectrum was measured in an angle of diffraction that ranged from 3° to 40°, according to the general test method of the Pharmacopoeia of Japan, using RAD-2B diffractometer (radiation source: CuKα) manufactured by Rigaku Denki. During the measurement, voltage/current was set at 35 kV/20 mA, and the scan speed was set at 5°/min.\nThe mixing ratio of a mixture consisting of an anhydrous tetomilast type A crystal and an anhydrous tetomilast type B crystal was obtained by comparing the powder X-ray diffraction spectrum of the above mixture, with the powder X-ray diffraction spectrum of a mixture formed by mixing a pure anhydrous tetomilast type A crystal and a pure anhydrous tetomilast type B crystal at various ratios.\nThermal transformation from an anhydrous tetomilast type B crystal to an anhydrous tetomilast type A crystal was confirmed by the means described in (1) to (3) below:\n(§2) (2) 5 g of the anhydrous tetomilast type B crystal obtained in Reference example 1 (3) was suspended in a solution consisting of 40 ml of acetone and 10 ml of water, and the obtained mixture was then stirred at 20° C. At that time, sampling was carried out at intervals of 15 minutes, 30 minutes, 60 minutes, and 120 minutes, and each of the obtained samples was subjected to powder X-ray diffraction to examine the crystal form.\nas §2, with “(3)” for “(2)”, “40°” for “20°”, “form. As a result, it could be confirmed that the sample collected after stirring for 15 minutes was a mixture consisting of an anhydrous tetomilast type B crystal and an anhydrous tetomilast type A crystal (A:B=50:50).” for “form.”"}, "[2]": {"test": "Crystal form after standing at 20° C. to 30° C., examined by powder X-ray diffraction", "format": "physicochemical", "settings": "left at a temperature between 20° C. and 30° C. for approximately 1 year", "procedure": "as §1\n(1) The anhydrous tetomilast type B crystal obtained in Reference example 1 (3) was left at a temperature between 20° C. and 30° C. for approximately 1 year, and thereafter, the crystal form thereof was examined by powder X-ray diffraction."}}, "data": [{"smiles": "CCOc1ccc(-c2nc(-c3cccc(C(=O)O)n3)cs2)cc1OCC", "note": "[anhydrous tetomilast type B crystal, 2-(3,4-diethoxyphenyl)-4-(2-carboxy-6-pyridyl)thiazole]", "values": [{"measurement": "crystal form by powder X-ray diffraction", "setting": "[1]; stirred at 20° C., 15 minutes", "value": "maintained the form as an anhydrous tetomilast type B crystal"}, {"measurement": "crystal form by powder X-ray diffraction", "setting": "[1]; stirred at 20° C., 30 minutes", "value": "maintained the form as an anhydrous tetomilast type B crystal"}, {"measurement": "crystal form by powder X-ray diffraction", "setting": "[1]; stirred at 20° C., 60 minutes", "value": "maintained the form as an anhydrous tetomilast type B crystal"}, {"measurement": "crystal form by powder X-ray diffraction", "setting": "[1]; stirred at 40° C., 30 minutes", "value": "changed to an anhydrous tetomilast type A crystal"}, {"measurement": "crystal form by powder X-ray diffraction", "setting": "[1]; stirred at 40° C., 60 minutes", "value": "changed to an anhydrous tetomilast type A crystal"}, {"measurement": "crystal form by powder X-ray diffraction", "setting": "[1]; stirred at 40° C., 120 minutes", "value": "changed to an anhydrous tetomilast type A crystal"}, {"measurement": "crystal form by powder X-ray diffraction", "setting": "[2]", "value": "maintained the form as an anhydrous tetomilast type B crystal"}]}]}
